This is an account of results in PubChem BioAssay AID602398 (The Scripps Research Institute Molecular Screening Center, 2012).

Calls of active or inactive are those of the source. How the calls were made is not given here.

Chain of Tyrosine-protein kinase ABL1 (Homo sapiens) + Ras and Rab interactor 1 (Homo sapiens) (P00519 whole entry, looked up): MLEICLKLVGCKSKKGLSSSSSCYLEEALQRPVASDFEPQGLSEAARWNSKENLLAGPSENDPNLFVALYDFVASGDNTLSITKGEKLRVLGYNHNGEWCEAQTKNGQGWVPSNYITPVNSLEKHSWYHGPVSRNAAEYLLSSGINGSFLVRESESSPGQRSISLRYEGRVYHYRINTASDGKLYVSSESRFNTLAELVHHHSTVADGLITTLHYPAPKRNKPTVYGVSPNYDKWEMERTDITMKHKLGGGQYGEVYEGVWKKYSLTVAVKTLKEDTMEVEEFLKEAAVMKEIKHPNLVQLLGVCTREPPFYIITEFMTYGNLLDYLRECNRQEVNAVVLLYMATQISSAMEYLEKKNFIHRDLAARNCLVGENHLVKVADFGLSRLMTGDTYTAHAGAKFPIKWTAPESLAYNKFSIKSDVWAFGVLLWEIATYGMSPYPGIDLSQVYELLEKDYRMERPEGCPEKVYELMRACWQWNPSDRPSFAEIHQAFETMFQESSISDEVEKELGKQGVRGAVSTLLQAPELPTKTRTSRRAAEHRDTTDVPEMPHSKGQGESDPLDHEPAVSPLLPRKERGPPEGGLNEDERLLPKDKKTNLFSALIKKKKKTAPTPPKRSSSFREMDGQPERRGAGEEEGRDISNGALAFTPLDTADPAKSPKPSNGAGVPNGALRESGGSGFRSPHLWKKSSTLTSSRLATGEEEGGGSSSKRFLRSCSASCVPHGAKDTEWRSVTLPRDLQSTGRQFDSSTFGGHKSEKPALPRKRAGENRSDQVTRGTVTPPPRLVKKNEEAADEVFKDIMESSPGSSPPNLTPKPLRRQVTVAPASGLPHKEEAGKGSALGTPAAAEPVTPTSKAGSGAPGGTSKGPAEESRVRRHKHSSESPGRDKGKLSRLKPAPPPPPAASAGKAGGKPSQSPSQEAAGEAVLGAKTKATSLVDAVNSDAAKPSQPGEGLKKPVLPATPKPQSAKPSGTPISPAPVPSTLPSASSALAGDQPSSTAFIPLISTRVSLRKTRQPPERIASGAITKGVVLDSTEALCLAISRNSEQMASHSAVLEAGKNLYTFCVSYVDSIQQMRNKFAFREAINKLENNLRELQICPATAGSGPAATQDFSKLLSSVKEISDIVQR
Chain of Tyrosine-protein kinase ABL1 (Homo sapiens) + Ras and Rab interactor 1 (Homo sapiens) (Q13671 whole entry, looked up): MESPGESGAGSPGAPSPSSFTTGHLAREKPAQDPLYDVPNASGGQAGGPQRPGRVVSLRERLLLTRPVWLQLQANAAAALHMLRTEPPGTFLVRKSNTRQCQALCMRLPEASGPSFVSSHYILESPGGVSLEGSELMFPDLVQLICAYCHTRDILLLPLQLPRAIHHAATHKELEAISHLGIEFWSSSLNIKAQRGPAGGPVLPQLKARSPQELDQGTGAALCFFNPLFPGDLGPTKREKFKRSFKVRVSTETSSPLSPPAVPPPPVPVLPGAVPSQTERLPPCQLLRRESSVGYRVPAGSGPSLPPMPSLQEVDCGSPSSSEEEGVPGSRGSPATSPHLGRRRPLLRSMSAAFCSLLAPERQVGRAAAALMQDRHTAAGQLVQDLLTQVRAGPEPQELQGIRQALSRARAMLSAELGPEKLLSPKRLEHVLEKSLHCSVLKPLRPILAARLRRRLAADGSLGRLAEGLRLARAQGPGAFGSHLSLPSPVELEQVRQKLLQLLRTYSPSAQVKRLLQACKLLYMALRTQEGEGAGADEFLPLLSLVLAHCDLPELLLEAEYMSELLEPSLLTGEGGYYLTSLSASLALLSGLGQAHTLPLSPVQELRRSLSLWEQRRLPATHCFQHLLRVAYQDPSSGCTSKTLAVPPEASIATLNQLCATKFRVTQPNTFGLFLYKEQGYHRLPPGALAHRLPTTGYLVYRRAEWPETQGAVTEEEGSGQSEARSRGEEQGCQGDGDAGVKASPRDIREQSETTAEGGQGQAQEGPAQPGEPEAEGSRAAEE

This test concerns the target Tyrosine-protein kinase ABL1 (Homo sapiens) + Ras and Rab interactor 1 (Homo sapiens) (UniProt P00519+Q13671). In words: Rin1-Abl binding inhibitor potency, late-stage follow-up, biochemical, TR-FRET, dose response (AID 602398). (In TR-FRET formats the signal depends on donor and acceptor labels being close together.)
As a reminder, the IC50 is the concentration that inhibits the measured activity by half. With `O=C(Cc1ccc(NC(=O)C2CCN(C(=O)c3ccccc3)CC2)cc1)Nc1ccc(C(=O)N2CCOCC2)cc1`, the IC50 result was “inactive”.
On to `CN(C(=O)c1ccc(NC(=O)Cc2ccc(NC(=O)C3CCN(C(=O)c4ccccc4)CC3)cc2)cc1)C1CC1`, for which the IC50 was 2.53 µM.
`O=c1cc(OCc2ccccc2)cc[nH]1`: the IC50 was 0.0161 µM.
As to `CN(CCc1ccccc1)C(=O)c1ccc(NC(=O)Cc2ccc(NC(=O)C3CCN(C(=O)c4ccccc4)CC3)cc2)cc1`, the IC50 was 8.52 µM.
`CCOC(=O)N1CCC(NC(=O)CCc2nc(C3=CCN(C)CC3)no2)CC1`: the IC50 is 9.41 µM.
As for `CN(CCc1ccccc1)C(=O)c1ccc(NC(=O)Cc2ccc(NC(=O)C3CCN(C(=O)C4CCCC4)CC3)cc2)cc1`, the IC50 was 5.22 µM.
With `CN(Cc1c(F)cccc1Cl)C(=O)CNC(=O)c1ccc2c(c1)OCO2`, the concentration for half-maximal inhibition (IC50) was 3.77 µM.
Regarding `N#Cc1ccccc1Sc1ccccc1C(=O)NCC(c1ccco1)N1CCCC1` (stereo not drawn), the IC50 was 4.08 µM.
As to `CC(=O)Nc1ccc(NC(=O)C2CCN(C(=O)c3cccs3)CC2)cc1`, the IC50 is 2.17 µM.
As for `O=C(Cc1ccc(NC(=O)C2CCN(C(=O)C3CCCC3)CC2)cc1)Nc1ccc(C(=O)N2CCOCC2)cc1`, the IC50 is 4.37 µM.
`COc1ccc(CCNc2cc(=O)[nH]c(N)n2)cc1`: the IC50 was 4.01 µM.
The value for `CSc1ccccc1OCc1cc(C(=O)N2CCNC(=O)C2)no1` was 5.94 µM; that for `CCOC(=O)N1CCN(C(=O)Nc2ccc(NC(=O)N3CCN(C(=O)OCC)CC3)cc2)CC1` was “inactive”.
Take `COc1ccc2oc(C(=O)NCC(c3ccco3)N(C)C)c(C)c2c1` (stereo not drawn): the IC50 was 5.19 µM.
As for `O=C(Cc1ccc(NC(=O)C2CCN(C(=O)C3CCCCC3)CC2)cc1)Nc1ccc(C(=O)N2CCOCC2)cc1`, the IC50 entry is “inactive”.
`COc1cccc(CSc2nnc(CSc3nc4nc(C)cc(C)n4n3)s2)c1`: the IC50 was 9.57 µM.
Consider `Cc1c(C(=O)NCC(c2ccco2)N(C)C)oc2c(Cl)cccc12` (stereo not drawn), for which the IC50 is 4.68 µM.
The value for `Cn1c(=O)c2c(nc(-n3ccnc3)n2Cc2ccc(Cl)cc2Cl)n(C)c1=O` was 4.31 µM.
